Experimental data from article PMC12239085, “Silver(I) Ions Bridging Oxadiazole-2-thione Derivatives with Mitochondriotropic Agents: A Promising Strategy for Potent Anticancer Chemotherapy” (Inorganic Chemistry, 2025).

Columns and labels:
[1] = system: normal human fetal lung fibroblast (MRC-5) cells; experiment: SRB toxicity assay, MRC-5; format: cell-based; details: 48 h incubation
Experimental: Stock solutions of compounds 1a–5a and 1–5 (0.01 M) in DMSO were freshly prepared and subsequently diluted with cell culture media to appropriate concentrations for various biological experiments. These included the assessment of cell viability using the SRB assay, micronucleus testing, cell morphology studies, cell cycle arrest, AO/EB staining, and mitochondrial membrane permeabilization tests. For CT-DNA binding studies, experiments were conducted in DMSO/buffer solutions. All biological experiments were performed in triplicate or more.
Stock solutions of 1a–5a and 1–5 (0.01 M) were dissolved in DMSO and subsequently diluted with cell culture medium to the desired concentrations (0.5–30 μM). MCF-7, MDA MB-231, and MRC-5 cells were plated in 96-well flat-bottom microplates at various densities: 6000, 8000, and 2000 cells per well, respectively. The cells were incubated for 24 h at 37 °C and then exposed to 1a–5a and 1–5 for 48 h. ,–
Cytotoxicity was evaluated using the SRB colorimetric assay at λ = 568 nm, with cell survival percentages calculated relative to the untreated control cells. Detailed information on the SRB assay procedure can be found in the previous publication. ,–

[2] = target: T1, lipoxygenase (LOX) (Glycine max, UniProt P08170); experiment: Inhibition of linoleic acid peroxidation by LOX; format: biochemical; details: for IC50: linoleic acid 0.3 mM, borate buffer pH 9, read-out: IC50 against LOX; for pIC50 LOX: p(IC50)= -Log(IC50), Table S4, this study
T1 sequence (P08170 1-839): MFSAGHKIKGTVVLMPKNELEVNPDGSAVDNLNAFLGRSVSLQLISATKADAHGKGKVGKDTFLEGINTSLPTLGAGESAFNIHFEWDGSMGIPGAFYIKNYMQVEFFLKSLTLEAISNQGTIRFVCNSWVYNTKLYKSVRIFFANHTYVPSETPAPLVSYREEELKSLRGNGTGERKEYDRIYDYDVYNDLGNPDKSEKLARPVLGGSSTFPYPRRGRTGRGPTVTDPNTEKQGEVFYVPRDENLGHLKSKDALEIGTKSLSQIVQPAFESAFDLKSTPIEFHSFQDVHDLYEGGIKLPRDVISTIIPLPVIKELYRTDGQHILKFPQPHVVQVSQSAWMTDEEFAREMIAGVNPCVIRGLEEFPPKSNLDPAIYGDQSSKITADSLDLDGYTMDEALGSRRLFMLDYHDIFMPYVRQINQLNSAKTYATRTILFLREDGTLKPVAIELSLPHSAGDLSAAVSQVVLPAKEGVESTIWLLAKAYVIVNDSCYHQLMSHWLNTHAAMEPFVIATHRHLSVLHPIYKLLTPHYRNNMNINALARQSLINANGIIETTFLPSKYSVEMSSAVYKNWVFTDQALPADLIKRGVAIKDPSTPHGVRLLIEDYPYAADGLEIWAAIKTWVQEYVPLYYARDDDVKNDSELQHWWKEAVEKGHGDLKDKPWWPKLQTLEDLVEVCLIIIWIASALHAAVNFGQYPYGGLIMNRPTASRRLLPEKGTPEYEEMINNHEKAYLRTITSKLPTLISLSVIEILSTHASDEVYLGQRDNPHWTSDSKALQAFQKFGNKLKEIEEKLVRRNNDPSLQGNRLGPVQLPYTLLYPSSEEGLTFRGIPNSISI
Experimental: This study performed as previously reported. , In brief, a 0.2 M borate buffer solution at pH 9 was prepared by dissolving boric acid in double-distilled water (ddw). The pH was then adjusted to 9.0 using a 50% w/w sodium hydroxide solution.
The linoleic acid substrate solution was prepared as follows: 0.05 mL of linoleic acid was dissolved in 0.05 cm^3 of 95% ethanol within a volumetric flask. Subsequently, double-distilled water was gradually added until reaching a final volume of 5 cm^3. This solution was then diluted with 30 cm^3 of borate buffer.
The LOX enzyme solution was prepared in an ice-cold bath by diluting a stock solution of 10,000 U/mL. For each reaction, 500 U of enzyme was used per 3 cm^3 of reaction mixture. One unit of LOX activity corresponds to an increase in absorbance at 234 nm of 0.001 per minute.
Enzyme activity was monitored by UV spectrophotometry. Specifically, 0.05 cm^3 of enzyme solution was added to a cuvette containing 2 cm^3 of linoleic acid solution, along with the appropriate volumes of buffer and inhibitor solutions 1–5 (concentration range of 1.5 to 12.5 μΜ). The enzymatic activity was determined by measuring the increase in absorbance at 234 nm, which corresponds to the oxidation of linoleic acid (ε = 25,000 M^–1 cm^–1). During the assays, the substrate concentration was maintained constant at 0.3 mM, while the buffer and inhibitor volumes were adjusted to achieve final inhibitor concentrations ranging from 2 to 30 μM.
The degree of LOX activity (A%) in the presence or absence of the 1–5 was calculated according to the following equation: , A%=(Vo(inthepresenceofinhibitor/Vo(withoutinhibitor))×100(%) where V o is the initial rate.
The value of the initial rate (V o, μΜ min^–1) was calculated according to the following formula: Vo=ΔC/Δt=ΔA/ε×Δt=tgα/ε where C is the concentration of the product (hydroperoxy-linoleic acid), t is the reaction time, ε is the molar extinction coefficient of hydroperoxy-linoleic acid, and tgα represents the slope of the kinetic curve obtained by plotting absorbance against time.

[3] = system: MCF-7 cells; experiment: Cell cycle arrest, flow cytometry; format: cell-based, human; details: for cell population in sub-G1 phase / cell population in S phase / cell population in G0/G1 phase: MCF-7, IC50 values, 48 h; for cell population in sub-G1 phase: untreated 5.1%; for cell population in S phase: untreated 9.4%; for cell population in G0/G1 phase: untreated 38.8%
Experimental: The MCF-7 cells were seeded into a 24-well plate (70,000 cells per well) and cultured at 37 °C for 24 h. […] For each sample, 10,000 events were recorded. The resulting DNA histograms were drawn and quantified using the FlowJo software (version FlowJo X 10.0.7r2). This assay was performed as reported previously. ,–

## c1ccc(-c2nnc([S][Ag]([PH](c3ccccc3)(c3ccccc3)c3ccccc3)([PH](c3ccccc3)(c3ccccc3)c3ccccc3)[PH](c3ccccc3)(c3ccccc3)c3ccccc3)o2)cc1 [compound 1]
[1]
  IC50: 3.77 ± 0.16 µM
[2]
  IC50: 2.5 µM
  pIC50 LOX: 5.6
[3]
  Relative rate of MCF-7 cells in sub-G1 phase compared to untreated cells: 2.8
  cell population in sub-G1 phase: 14.5%
  cell population in S phase: 15.4%

## Fc1ccccc1-c1nnc([S][Ag]([PH](c2ccccc2)(c2ccccc2)c2ccccc2)([PH](c2ccccc2)(c2ccccc2)c2ccccc2)[PH](c2ccccc2)(c2ccccc2)c2ccccc2)o1 [compound 2]
[1]
  IC50: 3.12 ± 0.11 µM
[2]
  IC50: 7.3 µM
  pIC50 LOX: 5.1
[3]
  Relative rate of MCF-7 cells in sub-G1 phase compared to untreated cells: 1.7
  cell population in sub-G1 phase: 8.9%
  cell population in G0/G1 phase: 76.9%

## Fc1ccc(-c2nnc([S][Ag]([PH](c3ccccc3)(c3ccccc3)c3ccccc3)([PH](c3ccccc3)(c3ccccc3)c3ccccc3)[PH](c3ccccc3)(c3ccccc3)c3ccccc3)o2)cc1 [compound 3]
[1]
  IC50: 2.72 ± 0.19 µM
[2]
  IC50: 6.8 µM
  pIC50 LOX: 5.2
[3]
  Relative rate of MCF-7 cells in sub-G1 phase compared to untreated cells: 2.5
  cell population in sub-G1 phase: 12.8%
  cell population in G0/G1 phase: 72.0%

## Clc1ccccc1-c1nnc([S][Ag]([PH](c2ccccc2)(c2ccccc2)c2ccccc2)([PH](c2ccccc2)(c2ccccc2)c2ccccc2)[PH](c2ccccc2)(c2ccccc2)c2ccccc2)o1 [compound 4]
[1]
  IC50: 4.07 ± 0.24 µM
[2]
  IC50: 7.5 µM
  pIC50 LOX: 5.1
[3]
  Relative rate of MCF-7 cells in sub-G1 phase compared to untreated cells: 2.6
  fold higher increase in MCF-7 sub-G1 population compared to the other compounds and cisplatin: 3 fold
  cell population in S phase: 26.5%

## Clc1cccc(-c2nnc([S][Ag]([PH](c3ccccc3)(c3ccccc3)c3ccccc3)([PH](c3ccccc3)(c3ccccc3)c3ccccc3)[PH](c3ccccc3)(c3ccccc3)c3ccccc3)o2)c1 [compound 5]
[1]
  IC50: 2.89 ± 0.08 µM
[2]
  IC50: 1.8 µM
  pIC50 LOX: 5.7
[3]
  Relative rate of MCF-7 cells in sub-G1 phase compared to untreated cells: 8.1
  cell population in sub-G1 phase: 41.1%
  cell population in S phase: 48.3%
